Results on 84 compounds are retold here after patent US20090092975A1, “SELECTABLE MARKER” (Mologic Ltd, priority 2005, published 2009).

For series [1] the following is noted: Table 1, monocarboxylic weak acids; cited from earlier work.
Series [2] relates to Saccharomyces cerevisiae strain 62 expressing PAD1. In kind it is cell-based. Conditions: predicted decarboxylation product in headspace; weak acid 0.5 mM, YEPD pH 4, 10 h at 28° C.; 0 = no decarboxylation. How it is done: S. cerevisiae strain 62 (which expresses the PAD1 gene) was cultured for 48 hr in YEPD pH 4, Yeast extract 10 g, Peptone 20 g, Glucose 20 g, at 28° C. in a shake flask, 120 rpm. The stationary-phase cells were inoculated into capped 28 ml McCartney bottles containing 10 mls YEPD pH 4, at 1 million cells per ml. Each bottle also contained one of 70 substrate weak acids at 0.5 mM. Tubes were then shaken for 10 h at 28° C.
1 ml samples of the headspace were passed into stainless-steel thermal desorption tubes, followed by a 10 ml air flush. (Desorption tubes—89 mm×5 mm ID, packed with 200 mg Tenax TA 60-80 mesh, Phase Separations, UK).
Thermal desorption tubes were placed in a Perkin Elmer ATD400 thermal desorption system, and the volatiles transferred to the Gas Chromatograph in a 2 stage process. Primary desorption was 250° C. for 10 min with a helium flow of […]. Using a split ratio of 1:1, volatiles were retained on a cold trap (25 mg Tenax TA) held at −30° C. Secondary desorption was carried out by rapidly heating and holding the cold trap at 250° C. for 2 min, with a helium flow of 20 ml/min and split ratio of 19:1. A DB624 column {30 m×0.32 mm, 1.8 microns film thickness} installed in a Carbo Erba GC800 was used to achieve separation and introduction of the volatile to the mass spectrometer. The column temperature was held at 40° C. for 2 min then increased at 5° C./min to 250° C. The column outlet was coupled via a heated transfer line at 250° C. into the ion source of the mass spectrometer operated at 70 eV in electron ionization (EI) mode. The source temperature was at 200° C. and the detector photomultiplier at 500V. Full scan MS data acquisition was carried out from m/z 30 to 300, with 0.6 sec scan and 0.05 sec inter scan delay.
The results are shown in Table 3, in each case the “predicted product” being the product which would be produced if decarboxylation of the weak acid were to take place.

As to `C/C=C/CC(=O)O` [trans-3-Pentenoic acid], in series [1], the Pka is listed as 4.36.
Turning to `O=C(O)c1ccccc1[N+](=O)[O-]` [2-Nitrobenzoic acid], the Pka in series [1] is listed as 2.47.
On to `O=C(O)C=Cc1ccc([N+](=O)[O-])cc1` [4-Nitro-cinnamic acid], for which, in series [2], the “GCMS Peak area” value is 0.
`COc1cc(C(=O)O)ccc1O` [Vanillic acid]: in series [1], the Pka is given as 4.51.
As to `CCCC(C)C(=O)O` (stereo not drawn) [2-Methylvaleric acid], the Pka in series [1] is reported as 4.79.
With `C=CCCCCC(=O)O` [6-Heptenoic acid], the Pka in series [1] is 4.81.
Take `O=C(O)C1CCCC1` [Cyclopentanecarboxylic acid]: the Pka in series [1] is on record as 4.8.
Take `O=C(O)C=Cc1ccccc1F` [2-Fluoro-cinnamic acid]: in series [2], the “GCMS Peak area” value is 3760.
With `COc1cccc(C(=O)O)c1` [m-Anisic acid], in series [1], the Pka is reported as 4.09.
Regarding `COc1ccc(C=CC(=O)O)cc1` [4-Methoxy-cinnamic acid], the “GCMS Peak area” value in series [2] was 1899.
For the compound `CCC(C)(C)C(=O)O` [2,2-Dimethylbutyric acid], the Pka in series [1] is given as 5.03.
For the compound `C=CCCC(=O)O` [4-Pentenoic acid], in series [1], the Pka is reported as 4.6364.
For the compound `Cc1cccc(C=CC(=O)O)c1` [3-Methyl-cinnamic acid], the “GCMS Peak area” value in series [2] is 8195.
In the case of `O=C(O)C#Cc1ccccc1` [Phenyl-propiolic acid], in series [2], the “GCMS Peak area” value is given as 0.
Turning to `CCCCC=CCC(=O)O` [3-Octenoic acid], the Pka in series [1] is recorded as 4.7926.
Turning to `O=C(O)C=Cc1ccc(C=CC(=O)O)cc1` [3-[4-(2-Carboxy-vinyl)-phenyl]-acrylic acid], the “GCMS Peak area” value in series [2] is recorded as 0.
On the same count and under the same terms, next, `O=C(O)/C=C/c1ccc(O)cc1` [Coumaric acid]: 0.
Take `CCCCCCC=CCC(=O)O` [3-Decenoic acid]: in series [1], the Pka is listed as 4.728.
As for `O=C(O)CC1CCCCCC1` [Cycloheptylacetic acid], in series [1], the Pka is on record as 4.822.
As to `O=C(O)c1ccsc1` [Thiophene-3-carboxylic acid], the Pka in series [1] is reported as 4.08.
Consider `O=C(O)/C=C\Cl` [cis-3-Chloroacrylic acid], for which the Pka in series [1] was 3.2506.
Regarding `O=C(O)C=Cc1ccccc1` [Cinnamic acid], the “GCMS Peak area” value in series [2] is 17538.
On the same count and under the same terms, the result for `O=C(O)/C=C/c1c[nH]cn1` [Urocanic acid] reads 0.
For the compound `O=C(O)c1ccco1` [2-Furoic acid], the Pka in series [1] was 3.13.
Consider `O=C(O)C=Cc1ccccc1C(F)(F)F` [2-Trifluoromethyl-cinnamic acid], for which the “GCMS Peak area” value in series [2] was 1440.
With `CCCC=CCC(=O)O` [3-Heptenoic acid], in series [1], the Pka was 4.7696.
For `CCCCC(=O)O` [Valeric acid], the “GCMS Peak area” value in series [2] was 0.
Take `C#CCCC(=O)O` [4-Pentynoic acid]: the Pka in series [1] is 4.1342.
In the case of `CCC(CC)C(=O)O` [2-Ethylbutyric acid], the Pka in series [1] was 4.71.
For the compound `C/C=C(\C)C(=O)O` [Tiglic acid], the Pka in series [1] is listed as 4.4564.
Take `COc1ccccc1C=CC(=O)O` [2-Methoxy-cinnamic acid]: the “GCMS Peak area” value in series [2] is on record as 128.
Same read-out and setting: the result for `O=C(O)C=Cc1ccccc1Cl` [2-Chloro-cinnamic acid] reads 4911; that for `O=C(O)C=Cc1cccc(Br)c1` [3-Bromo-cinnamic acid], 248.
Take `O=C(O)CCCC1CCCCC1` [Cyclohexanebutyric acid]: the Pka in series [1] is reported as 4.9061.
As for `Cc1ccccc1C(=O)O` [o-Toluic acid], the Pka in series [1] is recorded as 3.98.
Turning to `CC(C)CCC(=O)O` [4-Methylvaleric acid], in series [1], the Pka is 4.8689.
As for `C=CCC(=O)O` [Vinylacetic acid], the Pka in series [1] was 4.51.
Regarding `O=C(O)/C=C/Cl` [trans-3-Chloroacrylic acid], the Pka in series [1] was 3.2506.
With `O=C(O)C1=CCCCC1` [1-Cyclohexene-1-carboxylic acid], in series [1], the Pka is reported as 3.7528.
Take `CCC(C)CC(=O)O` (stereo not drawn) [3-Methylvaleric acid]: in series [1], the Pka is 4.7868.
Regarding `O=C(O)C=Cc1cccc([N+](=O)[O-])c1` [3-Nitro-cinnamic acid], the “GCMS Peak area” value in series [2] is listed as 0.
The same measure, in the same setting: next, `O=C(O)C=Cc1c[nH]c2ccccc12` [Indole-acrylic acid]: 0.
Regarding `CC1CC1C(=O)O` (stereo not drawn) [2-Methyl-cyclopropane carboxylic acid], the Pka in series [1] was 4.8.
In the case of `CC(C(=O)O)c1ccccc1` (stereo not drawn) [2-Phenylpropionic acid], the Pka in series [1] was 4.0606.
Consider `O=C(O)COc1ccccc1` [Phenoxyacetic acid], for which, in series [1], the Pka is given as 3.17.
For the compound `CCc1ccc(C(=O)O)cc1` [4-Ethylbenzoic acid], in series [1], the Pka is reported as 4.35.
Consider `O=C(O)CC1C=CCC1` (stereo not drawn) [2-Cyclopentene-1-acetic acid], for which the Pka in series [1] is 4.61.
Regarding `O=C(O)CC1CCCCC1` [Cyclohexylacetic acid], the Pka in series [1] is 4.8806.
As to `C=C(C)C(=O)O` [Methacrylic acid], in series [1], the Pka is 4.61.
`CC1(C(=O)O)CC1` [1-Methyl-cyclopropane carboxylic acid]: the Pka in series [1] was 5.1.
For `CC#CC(=O)O` [2-Butynoic acid], the Pka in series [1] was 2.6546.
Consider `O=C(O)C=Cc1cccc(F)c1` [3-Fluoro-cinnamic acid], for which the “GCMS Peak area” value in series [2] is 14027.
Regarding `O=C(O)c1ccccc1` [Benzoic acid], the “GCMS Peak area” value in series [2] was 0.
On the same count and under the same terms, next, `CCOc1ccc(C=CC(=O)O)cc1` [4-Ethoxycinnamic acid]: 227.
The same measure, in the same setting: the result for `O=C(O)/C=C/c1ccc(Cl)cc1Cl` [trans-2,4-Dichloro-cinnamic acid] reads 4428.
With `O=C(O)CCCc1ccccc1` [4-Phenylbutyric acid], the Pka in series [1] was 4.76.
Take `CCOc1ccccc1C=CC(=O)O` [2-Ethoxycinnamic acid]: the “GCMS Peak area” value in series [2] is given as 193.
On the same count and under the same terms, the result for `CCCCCC(=O)O` [Hexanoic acid] reads 0.
The same measure, in the same setting: the result for `O=C(O)C=Cc1cccc(Cl)c1` [3-Choro-cinnamic acid] reads 907.
Consider `CC(C)=CCC[C@@H](C)CC(=O)O` [(R)(+)Citronellic acid], for which the Pka in series [1] is 4.752.
Consider `C#CC(=O)O` [Propiolic acid], for which the Pka in series [1] was 2.39.
On to `O=C(O)C=Cc1ccc(F)c(F)c1F` [2,3,4-Trifluoro-cinnamic acid], for which the “GCMS Peak area” value in series [2] is given as 0.
For the compound `CC(C)(C)CC(=O)O` [3,3-Dimethylbutyric acid], the Pka in series [1] is on record as 4.961.
Regarding `O=C(O)C=Cc1ccc(F)cc1F` [2,4-Difluoro-cinnamic acid], the “GCMS Peak area” value in series [2] is reported as 35698.
For `CCCCCCCCCCC(=O)O` [Undecanoic acid], in series [1], the Pka is 5.03.
As to `O=C(O)C=Cc1ccccc1C(=O)O` [2-Carboxy-cinnamic acid], the “GCMS Peak area” value in series [2] was 0.
As for `O=C(O)C=Cc1ccc(Br)cc1` [4-Bromo-cinnamic acid], in series [2], the “GCMS Peak area” value is reported as 1038.
The same measure, in the same setting: next, `OCC=Cc1ccccc1` [Cinnamyl alcohol]: 0.
Turning to `O=C(O)CC1CC1` [Cyclopropylacetic acid], in series [1], the Pka was 4.8873.
Regarding `O=C(O)C1=CCCC1` [1-Cyclopentene-1-carboxylic acid], in series [1], the Pka is on record as 3.7528.
On to `O=C(O)C1CCCCCC1` [Cycloheptanecarboxylic acid], for which, in series [1], the Pka is reported as 4.9518.
Turning to `O=C(O)CCCl` [3-Chloropropionic acid], the Pka in series [1] was 3.8924.
For `O=C(O)Cc1ccccc1` [Phenylacetic acid], the Pka in series [1] is recorded as 4.31.
Take `O=C(O)c1cccc([N+](=O)[O-])c1` [3-Nitrobenzoic acid]: the Pka in series [1] was 3.46.
`CC(Cl)C(=O)O` (stereo not drawn) [2-Chloropropionic acid]: in series [1], the Pka was 2.897.
`O=C(O)CC1CCCC1` [Cyclopentylacetic acid]: in series [1], the Pka is listed as 4.76.
As to `O=C(O)C1(C(=O)O)CC1` [1,1-Cyclopropanedicarboxylic acid], the Pka in series [1] was 3.114.
Take `CC(C)c1ccc(C(=O)O)cc1` [Cumic acid]: the Pka in series [1] is reported as 4.35.
Take `O=C(O)CCC1CCCC1` [3-Cyclopentylpropionic acid]: the Pka in series [1] is 4.81.
In the case of `O=C(O)c1cccc(Cl)c1` [3-Chlorobenzoic acid], the Pka in series [1] was 3.81.
Turning to `C=C(Cl)C(=O)O` [2-Chloroacrylic acid], in series [1], the Pka was 2.6975.
For `O=C(O)c1ccccc1Cl` [2-Chlorobenzoic acid], in series [1], the Pka is 2.89.
With `O=C(O)C1CC=CCC1` (stereo not drawn) [3-Cyclohexene-1-carboxylic acid], in series [1], the Pka was 4.593.
With `C#CCCCCC(=O)O` [6-Heptynoic acid], the Pka in series [1] is listed as 4.71.
